Patent US9133199B2, “Pyrimidine derivatives as protein kinase inhibitors” (Cyclacel Limited, priority 2007, dated 2015)
Structures can show the parent of a compound that is named as a salt. Where two headings read alike, the source gives them in different places. Blank lines part the entries; values can stand above or below the molecule they belong to.

What was measured:
human PLK1 = human PLK1 (Homo sapiens (Human), UniProt P53350); experiment: PLK1 protein kinase assay (CDC25C phosphorylation, [γ-32P]-ATP); assay type: biochemical
human PLK1, sequence (P53350 whole entry): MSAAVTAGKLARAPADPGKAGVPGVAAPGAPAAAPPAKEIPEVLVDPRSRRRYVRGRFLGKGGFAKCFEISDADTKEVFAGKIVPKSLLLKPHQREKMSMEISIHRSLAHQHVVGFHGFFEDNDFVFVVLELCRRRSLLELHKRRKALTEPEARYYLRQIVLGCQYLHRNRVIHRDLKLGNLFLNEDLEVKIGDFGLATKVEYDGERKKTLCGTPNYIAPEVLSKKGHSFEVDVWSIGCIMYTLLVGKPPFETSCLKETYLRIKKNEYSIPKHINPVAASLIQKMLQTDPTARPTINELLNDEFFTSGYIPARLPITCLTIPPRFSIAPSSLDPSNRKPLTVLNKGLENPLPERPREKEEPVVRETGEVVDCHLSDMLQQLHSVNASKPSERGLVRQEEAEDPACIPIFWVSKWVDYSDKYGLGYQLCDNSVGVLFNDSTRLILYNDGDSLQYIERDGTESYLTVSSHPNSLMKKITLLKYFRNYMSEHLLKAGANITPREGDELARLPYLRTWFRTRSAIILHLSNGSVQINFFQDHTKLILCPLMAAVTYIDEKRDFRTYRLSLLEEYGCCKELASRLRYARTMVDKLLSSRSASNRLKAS

[1] = Nephelometry kinetic solubility; assay type: physicochemical
Excerpt: If a DMSO solution of a water soluble compound is introduced into aqueous buffer, the mixture remains clear unless the aqueous solubility limit is reached. Above the solubility limit, precipitation occurs and light travelling through the turbid suspension is scattered. The measurement of the intensity of the scattered light is the basis of nephelometric solubility determination.
Selected compounds were screened using a nephelometer to identify the concentration at which turbidity occurs, thereby giving an indication of kinetic solubility. By nephelometry (2% DMSO: 98% phosphate buffered saline pH 7.5) compound [254] was freely soluble at 200 μM (>0.11 mg/mL) which is the highest concentration tested in this assay. In contrast, in the same nephelometry assay, the maximum soluble concentration of prior art Example [I-253] of WO 07/095,188 was determined to be 75 μM (Table 6).

PLK2 = PLK2 (Homo sapiens (Human), UniProt Q9NYY3); experiment: PLK selectivity: PLK2 inhibition; assay type: biochemical; settings: for PLK2 IC50/PLK1 IC50: selectivity ratio
PLK2, sequence (Q9NYY3 whole entry): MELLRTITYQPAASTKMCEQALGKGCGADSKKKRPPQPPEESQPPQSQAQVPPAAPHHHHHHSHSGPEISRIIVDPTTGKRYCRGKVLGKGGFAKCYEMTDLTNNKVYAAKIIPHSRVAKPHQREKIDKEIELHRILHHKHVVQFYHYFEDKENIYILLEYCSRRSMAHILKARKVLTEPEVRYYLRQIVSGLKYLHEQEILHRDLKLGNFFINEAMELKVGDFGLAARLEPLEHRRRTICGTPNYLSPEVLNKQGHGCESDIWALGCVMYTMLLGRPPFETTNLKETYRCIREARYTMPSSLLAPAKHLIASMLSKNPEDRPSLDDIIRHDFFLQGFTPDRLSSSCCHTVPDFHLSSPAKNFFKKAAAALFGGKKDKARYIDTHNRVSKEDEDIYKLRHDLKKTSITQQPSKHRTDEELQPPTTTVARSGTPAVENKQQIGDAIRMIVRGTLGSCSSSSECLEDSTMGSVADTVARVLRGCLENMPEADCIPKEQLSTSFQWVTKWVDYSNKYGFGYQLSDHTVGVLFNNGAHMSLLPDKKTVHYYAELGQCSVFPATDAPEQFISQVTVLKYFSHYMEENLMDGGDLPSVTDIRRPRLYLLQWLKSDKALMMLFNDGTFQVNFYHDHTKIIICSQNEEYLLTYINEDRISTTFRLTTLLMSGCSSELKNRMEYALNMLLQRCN

PLK3 = PLK3 (Homo sapiens (Human), UniProt Q9H4B4); experiment: PLK selectivity: PLK3 inhibition; assay type: biochemical; settings: for PLK3 IC50/PLK1 IC50: selectivity ratio
PLK3, sequence (Q9H4B4 whole entry): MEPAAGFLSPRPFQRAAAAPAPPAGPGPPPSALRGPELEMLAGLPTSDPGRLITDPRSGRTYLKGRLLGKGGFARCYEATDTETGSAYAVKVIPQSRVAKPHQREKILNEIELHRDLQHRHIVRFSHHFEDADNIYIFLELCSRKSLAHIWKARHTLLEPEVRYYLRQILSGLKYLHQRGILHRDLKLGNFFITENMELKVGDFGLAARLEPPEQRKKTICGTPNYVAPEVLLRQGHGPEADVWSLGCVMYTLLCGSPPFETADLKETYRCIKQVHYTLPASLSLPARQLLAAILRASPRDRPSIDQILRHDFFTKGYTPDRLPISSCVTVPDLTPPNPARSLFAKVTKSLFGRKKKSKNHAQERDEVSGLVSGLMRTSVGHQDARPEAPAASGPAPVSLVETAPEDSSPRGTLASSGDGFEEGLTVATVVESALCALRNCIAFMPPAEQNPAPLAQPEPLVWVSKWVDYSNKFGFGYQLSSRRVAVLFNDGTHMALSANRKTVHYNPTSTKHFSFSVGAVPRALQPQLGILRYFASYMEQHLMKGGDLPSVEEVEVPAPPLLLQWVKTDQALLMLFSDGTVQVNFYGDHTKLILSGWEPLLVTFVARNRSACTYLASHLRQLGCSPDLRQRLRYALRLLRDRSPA

[2] = Pharmacokinetics in fasted conscious CD-1 mice (iv and oral); assay type: in vivo; settings: compared to compounds A-G
Method: Preliminary investigations of the pharmacokinetics of selected compounds were carried out in fasted conscious CD-1 mice (25-30 g). Compounds were dosed as 1 mg/kg by intravenous administration or 5-10 mg/kg by oral route. Twenty one male mice per administration route (n=3 mice per time point) received dose solution by single bolus injection in the tail vein or by oral gavage. Blood samples were collected by cardiac puncture at 5, 15, 30, 60, 120, 240 and 360 min following iv administration and at 30, 60, 120, 240, 360, 480 and 1440 min following oral administration. Blood samples were collected into tubes containing the anti-coagulant lithium heparin, mixed and placed promptly on crushed ice. Plasma was derived from whole blood by centrifugation, frozen and stored at −80° C. prior to analysis. Plasma concentrations were determined by liquid chromatography-tandem mass spectrometry in electrospray positive mode (ESI LC/MS/MS) using calibration curves prepared in the appropriate matrix. The lower level of quantification (LLOQ) in all cases was ca. 5 ng/mL. Plasma concentration-time data was processed using the computer program WinNonLin version 5.2 from which areas under the plasma concentration-time curve (AUCall) were calculated by non-compartmental analysis using Model 201 (IV-bolus Input) or Model 200 (Extravascular Input).
FIG. 1 plots the area under the curve (AUC) for plasma concentration vs time for each compound tested. The dosing vehicle across these experiments remained constant (intravenous=citrate buffer pH 3, 1 mL/kg; oral=DMA/PEG400/10 mM Tartrate buffer, pH 4 (1:3:6), 5 ml/kg). FIG. 2 represents the same data in the form of oral bioavailability (% F) for each compound.

A2780/ADR cells = experiment: Cell viability assay (Alamar Blue, 72 hours), MDR line; assay type: cell-based, human; settings: paired parental and MDR tumour cell lines (A2780-A2780/ADR, MES-SA-MES-SA/Dx5)
Excerpt: In vitro cell viability assays have been used to measure the effect of drug accumulation in paired parental and drug resistant tumour cell lines. The pairs used are the human ovarian carcinoma A2780 line with its MDR counterpart A2780/ADR and the human uterine sarcoma MES-SA line with its MDR counterpart MES-SA/Dx5 [Wesolowska O., et al. (2005) Anticancer Res., 25, 383-389].
Method: Cultivated human tumour cells of the ovarian cell line A2780 and its doxorubicin-resistant pair, A2780/ADR and the uterine cell line MES-SA and its doxorubicin-resistant pair, MES-SA/DX5 were seeded at 3000 cells per well in Nunc 96-well tissue culture plates, 100 μl per well in DMEM media containing 10% foetal calf serum and penicillin/streptomycin. […] The plates were then read at 544/595 nm.
The amount of Alamar Blue reagent reacted represents the metabolic activity of the cells. […] The values were calculated from the average of three individual measurements with blank correction (medium-only control).
The assay was performed on the Biomek FxP, automation platform from Beckman Coulter. The plates were read on the Paradigm plate reader supplied by Beckman Coulter. Asymmetry ratios were calculated as the IC50 value of the compound in the drug resistant cells divided by the IC50 value in the parental cells. […]

[3] = phosphate buffered saline with 2% DMSO, pH 7.5, aqueous buffer, kinetic from dmso stock, 2% DMSO: 98% phosphate buffered saline pH 7.5, highest concentration tested 200 μM, read-out: Nephelometry maximum soluble concentration

- IC50 (human PLK1; Table 2): < 1000 nM
SMILES: COc1cc(C(=O)NC2CCN(C)CC2)ccc1Nc1ncc2c(n1)N(C(C)C)CC1(CC1)C(=O)N2C [Compound 99, 4-(9-Isopropyl-5-methyl-6-oxo-6,7,8,9-tetrahydro-5H-spiro[pyrimido[4,5-b] [1,4]diazepin-3,1′-cyclopropane]-2-ylamino)-3-methoxy-N-(1-methyl-piperidin-4-yl)-benzamide]

- IC50 (human PLK1; Table 2): < 1000 nM
SMILES: COc1cc(C(=O)NCC2CCCCN2C)ccc1Nc1ncc2c(n1)N(C1CCCC1)CCC(=O)N2C (centres unmarked) [Compound 202, 4-(9-Cyclopentyl-5-methyl-6-oxo-6,7,8,9-tetrahydro-5H-pyrimido[4,5-b] [1,4]diazepin-2-ylamino)-3-methoxy-N-(1-methyl-piperidin-2-ylmethyl)-benzamide]

- solubility [1, 3]: 75 µM
SMILES: COc1cc(C(=O)NN2CCCC2)ccc1Nc1ncc2c(n1)N(C1CCCC1)CC1(CC1)C(=O)N2C [Example [I-253] of WO 07/095188, reference compound]

- PLK2 IC50/PLK1 IC50 (PLK2): 6
- PLK3 IC50/PLK1 IC50 (PLK3): 26
SMILES: COc1cc(C(=O)NC2CCN(C)CC2)ccc1Nc1ncc2c(n1)N(C1CCCC1)CC1(CC1)C(=O)N2C [WO 2007/095188 [I-76], reference compound]

- IC50 (human PLK1; Table 2): < 100 nM
SMILES: CCN(CC)CCNC(=O)c1ccc(Nc2ncc3c(n2)N(CC2CC2)CCC(=O)N3C)c(OC)c1 [Compound 240, 4-(9-Cyclopropyl-methyl-5-methyl-6-oxo-6,7,8,9-tetrahydro-5H-pyrimido[4,5-b] [1,4]diazepin-2-ylamino)-N-(2-diethylamino-ethyl)-3-methoxy-benzamide]

- solubility ([1]; pH 7.5, read-out: Nephelometry maximum soluble concentration): >200 µM
SMILES: COc1cc(C(=O)NN2CCN(C)CC2)ccc1Nc1ncc2c(n1)N(C1CCCC1)CC1(CC1)C(=O)N2C [[254]•HCl, 4-(9′-cyclopentyl-5′-methyl-6′-oxo-5′,6′,8′,9′-tetrahydrospiro[cyclopropane-1,7′-pyrimido[4,5-b][1,4]diazepine]-2′-ylamino)-3-methoxy-N-(4-methylpiperazin-1-yl)benzamide•HCl]

- oral bioavailability (% F) [2]: markedly superior
- systemic exposure (AUC of plasma concentration vs time) ([2]; iv 1 mg/kg and oral 5-10 mg/kg): markedly superior
SMILES: COc1cc(C(=O)N[C@H]2CC[C@H](N3CCN(CC4CC4)CC3)CC2)ccc1Nc1ncc2c(n1)N(C1CCCC1)CCC(=O)N2C [Compound 378, 4-(9-cyclopentyl-5-methyl-6-oxo-6,7,8,9-tetrahydro-5H-pyrimido[4,5-b][1,4]diazepin-2-ylamino)-N-((trans)-4-(4-(cyclopropylmethyl)piperazin-1-yl)cyclohexyl)-3-methoxybenzamide]

Continued, molecule first:

SMILES: COc1cc(C(=O)NN2CCN(C)CC2)ccc1Nc1ncc2c(n1)N(C1CCCC1)CC1(CC1)C(=O)N2C [Compound 254, 4-(9′-cyclopentyl-5′-methyl-6′-oxo-5′,6′,8′,9′-tetrahydrospiro[cyclopropane-1,7′-pyrimido[4,5-b][1,4]diazepine]-2′-ylamino)-3-methoxy-N-(4-methylpiperazin-1-yl)benzamide]
- solubility [1, 3]: ≥ 200 µM
- solubility ([1]; phosphate buffered saline with 2% DMSO, pH 7.5, aqueous buffer, kinetic from dmso stock, 2% DMSO: 98% phosphate buffered saline pH 7.5, read-out: Nephelometry soluble concentration): > 110 µg/mL

SMILES: COc1cc(C(=O)NC2CCC(N3CCCN(Cc4ccccc4)CC3)CC2)ccc1Nc1ncc2c(n1)N(C1CCCC1)CC1(CC1)C(=O)N2C (centres unmarked) [Compound 383, N-(4-(4-benzyl-1,4-diazepan-1-yl)cyclohexyl)-4-(9′-cyclopentyl-5′-methyl-6′-oxo-5′,6′,8′,9′-tetrahydrospiro[cyclopropane-1,7′-pyrimido[4,5-b][1,4]diazepine]-2′-ylamino)-3-methoxybenzamide]
- IC50 (human PLK1; Table 3, read-out: PLK 1 IC50): < 100 nM

SMILES: COc1cc(C(=O)NC2c3ccccc3C[C@H]2O)ccc1Nc1ncc2c(n1)N(C1CCCC1)CC1(CC1)C(=O)N2C (stereo partly drawn) [Compound 184, 4-(9-Cyclopentyl-5-methyl-6-oxo-6,7,8,9-tetrahydro-5H-spiro[pyrimido[4,5-b] [1,4]diazepin-3,1′-cyclopropane]-2-ylamino)-N-((1S,2R)-2-hydroxy-indan-1-yl)-3-methoxy-benzamide]
- IC50 (human PLK1; Table 2): < 1000 nM

SMILES: COc1cc(C(=O)N[C@H]2CC[C@@H](N3CCOCC3)CC2)ccc1Nc1ncc2c(n1)N(C1CCCC1)CC1(CC1)C(=O)N2C [Compound 391, 4-(9′-cyclopentyl-5′-methyl-6′-oxo-5′,6′,8′,9′-tetrahydrospiro[cyclopropane-1,7′-pyrimido[4,5-b][1,4]diazepine]-2′-ylamino)-3-methoxy-N-((cis)-4-morpholinocyclohexyl)benzamide]
- IC50 (human PLK1; Table 3, read-out: PLK 1 IC50): 100 to 1000 nM

SMILES: COc1cc(C(=O)N[C@H]2CC[C@H](N3CCN(CC4CC4)CC3)CC2)ccc1Nc1ncc2c(n1)N(C1CCCC1)CC(C)(C)C(=O)N2C [Compound 372, 4-(9-cyclopentyl-5,7,7-trimethyl-6-oxo-6,7,8,9-tetrahydro-5H-pyrimido[4,5-b][1,4]diazepin-2-ylamino)-N-((trans)-4-(4-(cyclopropylmethyl)piperazin-1-yl)cyclohexyl)-3-methoxybenzamide]
- cellular efflux (MDR/parental cell asymmetry) (A2780/ADR cells): low cellular efflux

SMILES: COc1cc(C(=O)NC2CCN(C)CC2)ccc1Nc1ncc2c(n1)N(C1CCCC1)CC1(CCC1)C(=O)N2C [WO 2007/095188 [I-64], reference compound]
- PLK2 IC50/PLK1 IC50 (PLK2): 17
- PLK3 IC50/PLK1 IC50 (PLK3): 67

SMILES: CN1C(=O)CCN(C2CCCC2)c2nc(NCc3ccsc3)ncc21 [Compound 106, 9-Cyclopentyl-5-methyl-2-[(thiophen-3-ylmethyl)-amino]-5,7,8,9-tetrahydro-pyrimido[4,5-b][1,4]di-azepin-6-one]
- IC50 (human PLK1; Table 2): < 1000 nM

SMILES: COc1cc(C(=O)NC2CN3CCC2CC3)ccc1Nc1ncc2c(n1)N(C1CCCC1)CC1(CCC1)C(=O)N2C (racemic) [Compound 218, (±)-4-(9′-cyclopentyl-5′-methyl-6′-oxo-5′,6′,8′,9′-tetrahydrospiro[cyclobutane-1,7′-pyrimido[4,5-b][1,4]diazepine]-2′-ylamino)-3-methoxy-N-(quinuclidin-3-yl)benzamide]
- selectivity for PLK1 versus PLK2 compared to compound [I-4] (PLK2; relative to [I-4]): 7 fold
- selectivity for PLK1 versus PLK2 compared to compound [I-64] of WO 07/095,188 (PLK2; relative to [I-64]): twice as selective
- selectivity for PLK1 versus PLK2 compared to compound [I-76] (PLK2; relative to [I-76]): ~6 fold
- PLK2 IC50/PLK1 IC50 (PLK2): 35
- selectivity for PLK1 versus PLK3 compared to compound [I-4] (PLK3; relative to [I-4]): 5 fold
- selectivity for PLK1 versus PLK3 compared to compound [I-64] (PLK3; relative to [I-64]): 5 fold
- selectivity for PLK1 versus PLK3 compared to compound [I-76] (PLK3; relative to [I-76]): ~12 fold
- PLK3 IC50/PLK1 IC50 (PLK3): 330
